Results published in US9695155B2, “Herbicidal substituted pyrimidinyloxy benzene compounds” (E. I. DU PONT DE NEMOURS AND COMPANY, priority 2013, dated 2017).

What was measured:
pigweed = assay: Test A postemergence; format: in vivo, Amaranthus retroflexus; conditions: 0 to 100 scale where 0 is no effect and 100 is complete control; for Pigweed plant response rating: 125 g ai/ha; for Plant response rating, Pigweed: 500 g ai/ha
Procedure, shortened: (§1)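 Pre- and postemergence greenhouse screen. Soil: loam + sand. Spray carrier: solvent mixture, non-phytotoxic, with surfactant. Post timing at 1–2 leaves, height 2–10 cm. Readout: visual injury on a 0–100 scale roughly 10 days after application, untreated plants as reference.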

rice = assay: Test B flooded paddy test; format: in vivo, Oryza sativa; conditions: Flood, 250 g ai/ha; 0 to 100 scale where 0 is no effect and 100 is complete control
Procedure, shortened: (§2)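 Evaluation is visual, against untreated controls, 13 to 15 days after treatment. Before treatment, plants reached the 2-leaf stage; pots were then flooded 3 cm deep, compound was added to the water, and that level was maintained. Ratings run 0 to 100, with 100 meaning complete control.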

barnyardgrass [1] = assay: Test B flooded paddy test; format: in vivo, Echinochloa crus-galli; conditions: Flood, 250 g ai/ha; 0 to 100 scale where 0 is no effect and 100 is complete control
Procedure, shortened: as §2

wild oat = assay: Test C postemergence; format: in vivo, Avena fatua; conditions: for Plant response rating (0 to 100), Oat, Wild: 16 g ai/ha, 0 is no effect, 100 is complete control; for Oat, Wild plant response rating: 31 g ai/ha; for Oat, Wild plant response rating / Plant response rating, Oat, Wild: scale 0 to 100 (0 no effect, 100 complete control)
Procedure, shortened: (§3)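 Plants were kept under greenhouse conditions for 13–15 days following spray. Pre-emergent application went to soil (loam–sand), post-emergent to foliage at 1–4 leaves. Evaluation: visual, percent control against untreated checks.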

lambsquarters = assay: Test C postemergence; format: in vivo, Chenopodium album; conditions: for Plant response rating (0 to 100), Lambsquarters: 16 g ai/ha, 0 is no effect, 100 is complete control; for Lambsquarters plant response rating: 31 g ai/ha; for Lambsquarters plant response rating / Plant response rating, Lambsquarters: scale 0 to 100 (0 no effect, 100 complete control)
Procedure, shortened: as §3

giant foxtail = assay: Test C postemergence; format: in vivo, Setaria faberii; conditions: for Plant response rating (0 to 100), Foxtail, Giant: 16 g ai/ha, 0 is no effect, 100 is complete control; for Foxtail, Giant plant response rating: 31 g ai/ha; for Foxtail, Giant plant response rating / Plant response rating, Foxtail, Giant: scale 0 to 100 (0 no effect, 100 complete control)
Procedure, shortened: as §3

yellow nutsedge = assay: Test C postemergence; format: in vivo, Cyperus esculentus; conditions: for Plant response rating (0 to 100), Nutsedge, Yellow: 16 g ai/ha, 0 is no effect, 100 is complete control; for Nutsedge, Yellow plant response rating: 31 g ai/ha; for Nutsedge, Yellow plant response rating / Plant response rating, Nutsedge, Yellow: scale 0 to 100 (0 no effect, 100 complete control)
Procedure, shortened: as §3

barnyardgrass [2] = assay: Test C postemergence; format: in vivo, Echinochloa crus-galli; conditions: for Plant response rating (0 to 100), Barnyardgrass: 16 g ai/ha, 0 is no effect, 100 is complete control; for Barnyardgrass plant response rating: 31 g ai/ha, 13 to 15 days; for Barnyardgrass plant response rating / Plant response rating, Barnyardgrass: scale 0 to 100 (0 no effect, 100 complete control)
Procedure, shortened: as §3

barnyardgrass [3] = assay: Test A preemergence; format: in vivo, Echinochloa crus-galli; conditions: for Barnyardgrass plant response rating (0 to 100 scale, 0 is no effect, 100 is complete control): 125 g ai/ha; for Barnyardgrass plant response rating: 500 g ai/ha, 0 to 100 scale where 0 is no effect and 100 is complete control
Procedure, shortened: as §1

barnyardgrass [4] = assay: Test A postemergence; format: in vivo, Echinochloa crus-galli; conditions: 0 to 100 scale where 0 is no effect and 100 is complete control; for Barnyardgrass plant response rating: 125 g ai/ha; for Plant response rating, Barnyardgrass: 500 g ai/ha
Procedure, shortened: as §1

chickweed = assay: Test C postemergence; format: in vivo, Stellaria media; conditions: for Plant response rating (0 to 100), Chickweed: 16 g ai/ha, 0 is no effect, 100 is complete control; for Chickweed plant response rating: 31 g ai/ha; for Chickweed plant response rating / Plant response rating, Chickweed: scale 0 to 100 (0 no effect, 100 complete control)
Procedure, shortened: as §3

morningglory = assay: Test C postemergence; format: in vivo, Ipomoea coccinea; conditions: for Plant response rating (0 to 100), Morningglory: 16 g ai/ha, 0 is no effect, 100 is complete control; for Morningglory plant response rating: 31 g ai/ha; for Morningglory plant response rating / Plant response rating, Morningglory: scale 0 to 100 (0 no effect, 100 complete control)
Procedure, shortened: as §3

large (Lg) crabgrass [5] = assay: Test C postemergence; format: in vivo, Digitaria sanguinalis; conditions: for Plant response rating (0 to 100), Crabgrass, Large: 16 g ai/ha, 0 is no effect, 100 is complete control; for Crabgrass, Large plant response rating: 31 g ai/ha; for Crabgrass, Large plant response rating / Plant response rating, Crabgrass, Large: scale 0 to 100 (0 no effect, 100 complete control)
Procedure, shortened: as §3

large (Lg) crabgrass [6] = assay: Test A preemergence; format: in vivo, Digitaria sanguinalis; conditions: for Crabgrass, Large plant response rating (0 to 100 scale): 125 g ai/ha; for Crabgrass, Large plant response rating: 500 g ai/ha, 0 to 100 scale where 0 is no effect and 100 is complete control
Procedure, shortened: as §1

sedge, umbrella = assay: Test B flooded paddy test; format: in vivo, Cyperus difformis; conditions: Flood, 250 g ai/ha; 0 to 100 scale where 0 is no effect and 100 is complete control
Procedure, shortened: as §2

[7] = postemergence, visual rating, 13 to 15 days
[8] = 125 g ai/ha, postemergence, visual rating
[9] = Postemergence, 62 g ai/ha, 13 to 15 days

Fc1cnc(Oc2ccccc2-n2cc(C(F)F)cn2)nc1 [Compound 228]
Pigweed plant response rating (pigweed): 100
Plant response rating, Pigweed (pigweed): 100
Plant response rating, Rice (rice): 0
Plant response rating, Barnyardgrass (barnyardgrass [1]): 0
Plant response rating (0 to 100), Oat, Wild (wild oat; postemergence): 0
Oat, Wild plant response rating (wild oat; [7]): 0
Plant response rating, Oat, Wild (wild oat; [8]): 5
Plant response rating, Oat, Wild (wild oat; [9]): 0
Plant response rating (0 to 100), Lambsquarters (lambsquarters; postemergence): 25
Lambsquarters plant response rating (lambsquarters; [7]): 40
Plant response rating, Lambsquarters (lambsquarters; [8]): 65
Plant response rating, Lambsquarters (lambsquarters; [9]): 75
Plant response rating (0 to 100), Foxtail, Giant (giant foxtail; postemergence): 0
Foxtail, Giant plant response rating (giant foxtail; [7]): 0
Plant response rating, Foxtail, Giant (giant foxtail; [8]): 5
Plant response rating, Foxtail, Giant (giant foxtail; [9]): 0
Plant response rating (0 to 100), Nutsedge, Yellow (yellow nutsedge; postemergence): 0
Nutsedge, Yellow plant response rating (yellow nutsedge; [7]): 0
Plant response rating, Nutsedge, Yellow (yellow nutsedge; [8]): 5
Plant response rating, Nutsedge, Yellow (yellow nutsedge; [9]): 5
Plant response rating (0 to 100), Barnyardgrass (barnyardgrass [2]; postemergence): 0
Barnyardgrass plant response rating (barnyardgrass [2]; postemergence, visual rating): 0
Plant response rating, Barnyardgrass (barnyardgrass [2]; [8]): 5
Plant response rating, Barnyardgrass (barnyardgrass [2]; Postemergence, 62 g ai/ha): 5
Barnyardgrass plant response rating (0 to 100 scale, 0 is no effect, 100 is complete control) (barnyardgrass [3]): 20
Barnyardgrass plant response rating (barnyardgrass [3]): 100
Barnyardgrass plant response rating (barnyardgrass [4]): 10
Plant response rating, Barnyardgrass (barnyardgrass [4]): 90
Plant response rating (0 to 100), Chickweed (chickweed; postemergence): 10
Chickweed plant response rating (chickweed; [7]): 30
Plant response rating, Chickweed (chickweed; [8]): 50
Plant response rating, Chickweed (chickweed; [9]): 50
Plant response rating (0 to 100), Morningglory (morningglory; postemergence): 5
Morningglory plant response rating (morningglory; [7]): 10
Plant response rating, Morningglory (morningglory; [8]): 35
Plant response rating, Morningglory (morningglory; [9]): 25
Plant response rating (0 to 100), Crabgrass, Large (large (Lg) crabgrass [5]; postemergence): 0
Crabgrass, Large plant response rating (large (Lg) crabgrass [5]; [7]): 5
Plant response rating, Crabgrass, Large (large (Lg) crabgrass [5]; [8]): 5
Plant response rating, Crabgrass, Large (large (Lg) crabgrass [5]; [9]): 5
Crabgrass, Large plant response rating (0 to 100 scale) (large (Lg) crabgrass [6]): 90
Crabgrass, Large plant response rating (large (Lg) crabgrass [6]): 100
Plant response rating, Sedge, Umbrella (sedge, umbrella): 60

FC(F)c1cnn(-c2c(Cl)cccc2Oc2ncc(Cl)cn2)c1 [Compound 192]
Pigweed plant response rating (pigweed): 100
Plant response rating, Pigweed (pigweed): 100
Plant response rating, Rice (rice): 0
Plant response rating, Barnyardgrass (barnyardgrass [1]): 0
Plant response rating (0 to 100), Oat, Wild (wild oat; postemergence): 0
Oat, Wild plant response rating (wild oat; [7]): 0
Plant response rating, Oat, Wild (wild oat; [8]): 5
Plant response rating, Oat, Wild (wild oat; [9]): 5
Plant response rating (0 to 100), Lambsquarters (lambsquarters; postemergence): 10
Lambsquarters plant response rating (lambsquarters; [7]): 25
Plant response rating, Lambsquarters (lambsquarters; [8]): 90
Plant response rating, Lambsquarters (lambsquarters; [9]): 90
Plant response rating (0 to 100), Foxtail, Giant (giant foxtail; postemergence): 5
Foxtail, Giant plant response rating (giant foxtail; [7]): 5
Plant response rating, Foxtail, Giant (giant foxtail; [8]): 10
Plant response rating, Foxtail, Giant (giant foxtail; [9]): 5
Plant response rating (0 to 100), Nutsedge, Yellow (yellow nutsedge; postemergence): 5
Nutsedge, Yellow plant response rating (yellow nutsedge; [7]): 5
Plant response rating, Nutsedge, Yellow (yellow nutsedge; [8]): 40
Plant response rating, Nutsedge, Yellow (yellow nutsedge; [9]): 0
Plant response rating (0 to 100), Barnyardgrass (barnyardgrass [2]; postemergence): 5
Barnyardgrass plant response rating (barnyardgrass [2]; postemergence, visual rating): 10
Plant response rating, Barnyardgrass (barnyardgrass [2]; [8]): 10
Plant response rating, Barnyardgrass (barnyardgrass [2]; Postemergence, 62 g ai/ha): 10
Barnyardgrass plant response rating (0 to 100 scale, 0 is no effect, 100 is complete control) (barnyardgrass [3]): 60
Barnyardgrass plant response rating (barnyardgrass [3]): 100
Barnyardgrass plant response rating (barnyardgrass [4]): 60
Plant response rating, Barnyardgrass (barnyardgrass [4]): 90
Plant response rating (0 to 100), Chickweed (chickweed; postemergence): 45
Chickweed plant response rating (chickweed; [7]): 50
Plant response rating, Chickweed (chickweed; [8]): 60
Plant response rating, Chickweed (chickweed; [9]): 70
Plant response rating (0 to 100), Morningglory (morningglory; postemergence): 30
Morningglory plant response rating (morningglory; [7]): 50
Plant response rating, Morningglory (morningglory; [8]): 35
Plant response rating, Morningglory (morningglory; [9]): 35
Plant response rating (0 to 100), Crabgrass, Large (large (Lg) crabgrass [5]; postemergence): 5
Crabgrass, Large plant response rating (large (Lg) crabgrass [5]; [7]): 10
Plant response rating, Crabgrass, Large (large (Lg) crabgrass [5]; [8]): 5
Plant response rating, Crabgrass, Large (large (Lg) crabgrass [5]; [9]): 5
Crabgrass, Large plant response rating (0 to 100 scale) (large (Lg) crabgrass [6]): 100
Crabgrass, Large plant response rating (large (Lg) crabgrass [6]): 100
Plant response rating, Sedge, Umbrella (sedge, umbrella): 85
